Like-named read-outs stand apart in the source and are kept apart here.
How the values were obtained:
TRPA1 = biological target: T1, TRPA1 (Mus musculus, UniProt Q8BLA8); experiment: IonWorks Barracuda (IWB) automated patch clamp detection of TRPA1 inhibitory activity; format: cell-based, mouse (mTRPA1); conditions: for IC50: automated patch clamp (IWB)
T1 construct: expressed in transfected cells; host or cells: HEK293
Method: The inhibitory activity of some compounds in the Examples of present invention on transient receptor potential channel protein TRPA1 was tested in this example. The compound of formula A (WO2010075353) was used as a positive control compound: […]
IonWorks Barracuda (IWB) automated patch clamp detection was used as test method: HEK293 cells stably expressing TRPA1 were placed in DMEM medium containing 15 μg/mL Blasticidin S HCl, 200 μg/mL Hygromycin B and 10% FBS in the T175 culture flask, and cultured in 37° C., 5% CO2 incubator. When the cell density reached about 80%, the culture medium was removed, rinsed with phosphate buffered saline (PBS) without calcium and magnesium. 3 mL of Trypsin was added to digest for 2 min, 7 mL of culture medium was added to terminate the digestion. The cells were collected to 15 mL centrifuge tube and centrifuged at 800 rpm for 3 min. After the supernatant was removed, the cells were added to appropriate volume of extracellular fluid for re-suspending, and the cell density was controlled at 2-3×10^6/mL for IWB experiment. Extracellular fluid formulation (in mM): 140 NaCl, 5 KCl, 1 MgCl2, 10 HEPES, 0.5 EGTA, 10 Glucose (pH 7.4); intracellular fluid formulation (in mM): 140 CsCl, 10 HEPES, 5 EGTA, 0.1 CaCl2, 1 MgCl2 (pH 7.2). 28 mg/mL of amphotericin B was freshly prepared with DMSO on the day of experiment, and then final concentration of 0.1 mg/mL was prepared with intracellular fluid.
Population patch clamp (PPC) plate was used in IWB experiment. The entire detection process was automatically carried out by the instrument. Extracellular fluid was added into 384 wells of PPC plate, and 6 µL of the intracellular fluid was added into plenum (under the PPC plate), 6 µL of cell fluid was added for sealing test, and finally the intracellular fluid in plenum was replaced with amphotericin B-containing intracellular fluid to establish a whole-cell recording mode after perforating sealed cells. The sampling frequency for recording TPRA1 current was 10 kHz, the cells were clamped at 0 mV, the voltage stimulation command (channel protocol) was a ramp voltage from −100 mV to +100 mV for 300 ms. This voltage stimulation was applied every 10 s, mTRPA1 current was induced by 300 µM AITC.
Data recording and current amplitude measurement export were carried out by IWB software (version 2.5.3, Molecular Devices Corporation, Union City, Calif.). No statistics was recorded for holes with sealing impedance lower than 20 MΩ. The original current data was corrected by software for leakage reduction. TRPA1 current amplitude was measured at +100 mV. […] If IC50 value of HC030031 exceeded 3 times the average IC50 value previously obtained on each plate, it would be re-tested. The dose-effect curve of compounds and IC50 were fitted and calculated by GraphPad Prism 5.02 (GraphPad Software, San Diego, Calif.).

[1] = test system: ICR mice, acetic acid writhing pain model; experiment: mice acetic acid writhing pain model; format: in vivo, mouse; conditions: 10 mg/kg by gavage, within 30 min; saline group 49 times
Method: Male ICR mice, weighed 22-25 g, were fasted but allowed to drink water freely for 2 h before administration. All ICR mice were weighed and grouped randomly, and the number of animals in each group was >10. […] The test compound was IC-1 (the compound prepared in Example 9), and the administration dosages were 5 mg/kg and 10 mg/kg. […] When concave abdomen, stretched trunk and hind claw, and high buttocks appeared, one number point was recorded. […] After administration, the fewer visceral pains in the mice were, the stronger the analgesic effect of the compound was.

[2] = test system: C57 mice, hot plate pain model; experiment: mice hot plate pain model; format: in vivo, mouse; conditions: 10 mg/kg intraperitoneal, hot plate 55±0.1° C., within 60 minutes
Method: SPF-grade C57 male mice were placed at hot plate with constant 55±0.1° C. […] If the pain reaction of mice was observed, the mice were taken out immediately to prevent mice from scalding. […] The test compounds were freshly prepared on the day of administration. 0.9% NaCl physiological saline solution was prepared as solvent for later use. Appropriate amount of test compounds were added into required volume of physiological saline and fully suspended, and the concentration of the drug compound in preparation was 1 mg/ml. The standard volume of administration to mice was 10 ml/kg (or 0.1 ml/10 g). […] The administration volume was 10 ml/kg. […] Hot plate observation index: the reaction time of mice on the hot plate at 55±0.1° C. (Time latency). Measurement and recording were conducted at 3 h before administration and 15 min, 30 min, and 60 min after administration. Maximum possible effect (MPE) % was used to evaluate analgesic effect of each compound, i.e., MPE %=[(Post drug latency-baseline latency)/(30-baseline latency)]×100. MPE % at different time points was recorded. The higher the value of MPE % was, the stronger the analgesic effect of the compound was.

[3] = test system: C57BL/6 mice, formalin pain model; experiment: mice formalin pain model (Example 44); format: in vivo, mouse; conditions: 20 mg/kg intraperitoneal, phase I (0-10 min) and phase II (10-60 min), vs saline group
Method: Before the start of experiment, the mice were allowed to adapt to the experimental environment for 72 h without fasting. The test drug was administrated by intraperitoneal injection at a dose of 20 mg/kg, and then the mice were placed in a transparent, ventilated plexiglass cylinder for 1 h, and then 20 μl of 4% formalin solution was injected into the left hind plantar of mice of each group by microinjector. The claw pain response of mice was real-time recorded by miniature camera. The number of times of lifting (1 min/time), shaking (2 min/time), and licking (3 min/time) left claw and the time length of licking left claw were used as indicators of pain response, the cumulative scoring and licking time in two stages of 0-10 min (phase I, acute pain phase) and 10-60 min (phase II, inflammatory pain phase) were observed and recorded, and the statistical analysis was conducted.

human TRPA1 channel = biological target: T2, human TRPA1 channel (Homo sapiens, UniProt O75762); experiment: manual patch clamp detection of TRPA1 inhibitory activity; format: cell-based
T2 construct: expressed in transfected cells; host or cells: HEK293
Method: The HEK293 cell line stably expressing human TRPA1 channel was placed in T75 culture flask with DMEM medium containing 15 μg/mL Blasticidin S HCl, 200 μg/mL Hygromycin B and 10% FBS, and cultured in incubator at 37° C. and 5% CO2. When the cell density reached about 80%, the culture medium was removed, the residue was rinsed with phosphate buffered saline (PBS) without calcium and magnesium. 2 mL of trypsin was added to digest for 2 minutes, and 8 mL of culture medium was added to terminate the digestion. The cells were collected to 15 mL centrifuge tube and centrifuged at 800 rpm for 3 min. After the supernatant was removed, an appropriate volume of extracellular fluid was added to re-suspend the cells.
In manual patch clamp detection, HEKA system (Patch Master software) was used together with EPC-10 amplifier to record the whole cell current of TRPA1 stably transfected cell line at room temperature. intracellular fluid formulation for whole cell recording was as follows (mM): 140 CsCl, 10 HEPES, 5 EGTA, 0.1 CaCl2, 1 MgCl2 (pH 7.2, osmotic pressure 295-300 mOsm); Ca^2+-free extracellular fluid formulation for recording was as follows (mM): 140 NaCl, 5 KCl, 0.5 EGTA, 1 MgCl2, 10 Glucose, 10 HEPES (pH 7.4, osmotic pressure 300-310 mOsm). Glass microelectrode resistance used for patch clamp recording was 2-4 MΩ, the sampling frequency was 10 kHz, the filter frequency was 2.9 kHz, the cell clamp was 0 mV, and the voltage stimulation command (channel protocol) was a linear voltage from −100 mV to +100 mV for 300 ms, then restored to 0 mV clamping potential. The recording was performed every 2 s. The hTRPA1 current was induced by 100 μM AITC. To ensure the accuracy of current recording, the series resistance was used for 60% compensation during recording.
Data recording and current amplitude measurement export were completed by Patch Master software. Cells with sealing impedance lower than 500 MΩ, w were not included in the statistics. The original current data were corrected by software for leakage reduction, and the hTRPA1 current amplitude was measured at +100 mV. The compound dose-effect curve and IC50 were fitted and calculated by GraphPad Prism 5.02 (GraphPad Software, San Diego, Calif.).

[4] = HEK293 cells stably expressing TRPA1, AITC-induced current at +100 mV, read-out: IC50 (μM) on TRPA1 in the patch clamp detection test

T1 sequence (Q8BLA8 whole entry): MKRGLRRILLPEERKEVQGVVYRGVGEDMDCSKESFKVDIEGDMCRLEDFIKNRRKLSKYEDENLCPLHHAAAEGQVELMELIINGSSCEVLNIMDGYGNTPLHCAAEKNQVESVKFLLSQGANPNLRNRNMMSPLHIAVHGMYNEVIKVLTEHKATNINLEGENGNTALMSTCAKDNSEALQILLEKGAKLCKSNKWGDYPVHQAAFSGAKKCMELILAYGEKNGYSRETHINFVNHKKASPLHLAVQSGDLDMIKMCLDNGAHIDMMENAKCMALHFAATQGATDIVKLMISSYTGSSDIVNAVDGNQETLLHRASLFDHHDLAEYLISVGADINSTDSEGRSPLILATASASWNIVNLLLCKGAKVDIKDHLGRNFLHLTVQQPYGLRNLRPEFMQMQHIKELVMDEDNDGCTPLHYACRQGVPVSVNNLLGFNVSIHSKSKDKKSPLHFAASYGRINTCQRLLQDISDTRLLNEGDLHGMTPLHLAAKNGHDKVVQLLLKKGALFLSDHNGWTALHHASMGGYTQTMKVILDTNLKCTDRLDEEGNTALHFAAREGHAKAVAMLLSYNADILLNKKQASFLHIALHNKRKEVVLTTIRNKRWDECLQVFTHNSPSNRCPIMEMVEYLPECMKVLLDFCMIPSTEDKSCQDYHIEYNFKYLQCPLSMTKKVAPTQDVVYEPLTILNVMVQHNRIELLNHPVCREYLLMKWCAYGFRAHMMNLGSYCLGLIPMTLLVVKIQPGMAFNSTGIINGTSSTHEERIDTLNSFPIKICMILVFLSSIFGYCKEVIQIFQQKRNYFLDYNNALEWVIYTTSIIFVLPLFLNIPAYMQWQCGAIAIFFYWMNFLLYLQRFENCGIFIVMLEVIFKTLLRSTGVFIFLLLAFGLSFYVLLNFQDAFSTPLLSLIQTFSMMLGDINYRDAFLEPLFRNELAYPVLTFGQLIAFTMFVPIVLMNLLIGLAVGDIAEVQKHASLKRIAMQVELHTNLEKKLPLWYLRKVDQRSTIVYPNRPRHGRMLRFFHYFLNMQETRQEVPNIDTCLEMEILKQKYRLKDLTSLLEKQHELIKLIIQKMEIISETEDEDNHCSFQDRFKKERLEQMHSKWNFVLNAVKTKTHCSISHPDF
T2 sequence (O75762 whole entry): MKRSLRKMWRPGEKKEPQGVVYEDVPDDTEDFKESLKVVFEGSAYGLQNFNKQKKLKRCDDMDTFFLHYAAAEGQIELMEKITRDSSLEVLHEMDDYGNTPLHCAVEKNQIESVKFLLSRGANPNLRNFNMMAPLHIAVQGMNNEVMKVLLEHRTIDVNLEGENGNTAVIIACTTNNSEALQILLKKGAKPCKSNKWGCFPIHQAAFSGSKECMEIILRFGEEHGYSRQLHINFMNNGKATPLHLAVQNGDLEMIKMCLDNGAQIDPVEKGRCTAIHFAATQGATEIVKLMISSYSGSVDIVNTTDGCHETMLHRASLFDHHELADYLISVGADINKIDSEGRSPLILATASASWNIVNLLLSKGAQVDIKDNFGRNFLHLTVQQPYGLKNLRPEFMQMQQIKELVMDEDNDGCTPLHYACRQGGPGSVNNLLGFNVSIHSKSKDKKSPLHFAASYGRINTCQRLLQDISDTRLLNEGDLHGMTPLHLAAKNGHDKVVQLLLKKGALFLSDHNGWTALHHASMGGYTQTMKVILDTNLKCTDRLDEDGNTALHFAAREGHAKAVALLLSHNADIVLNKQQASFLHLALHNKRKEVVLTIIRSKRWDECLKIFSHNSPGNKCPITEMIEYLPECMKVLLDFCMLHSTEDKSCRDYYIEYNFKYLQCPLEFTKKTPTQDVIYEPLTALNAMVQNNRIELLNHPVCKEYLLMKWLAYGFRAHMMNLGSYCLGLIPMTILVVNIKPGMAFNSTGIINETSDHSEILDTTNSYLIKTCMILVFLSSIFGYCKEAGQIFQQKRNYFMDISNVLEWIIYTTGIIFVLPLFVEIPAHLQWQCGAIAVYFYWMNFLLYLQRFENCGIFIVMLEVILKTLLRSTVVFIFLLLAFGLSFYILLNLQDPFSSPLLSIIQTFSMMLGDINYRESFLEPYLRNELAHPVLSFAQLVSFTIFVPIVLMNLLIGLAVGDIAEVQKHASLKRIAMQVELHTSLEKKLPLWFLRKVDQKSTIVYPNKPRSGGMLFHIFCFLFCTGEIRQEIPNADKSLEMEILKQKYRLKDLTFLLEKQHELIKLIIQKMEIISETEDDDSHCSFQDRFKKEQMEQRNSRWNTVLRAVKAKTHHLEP

| Structure (SMILES) | IC50 (TRPA1; [4]) | IC50 (TRPA1; read-out: IC50 on TRPA1) | other results |
| --- | --- | --- | --- |
| CNCC[C@H](Oc1cccc2ccccc12)c1cccs1 [Duloxetine (R configuration), Duloxetine, reference compound] | 20 to 50 µM | 48.5 µM | – |
| CN(C)CC[C@H](Oc1cccc2ccoc12)c1cccs1 [Compound IC-8, (S)-3-(benzofuran-7-yloxy)-N,N-dimethyl-3-(thiophen-2-yl)propyl-1-amine] | 1 to 5 µM | < 5 µM | – |
| CNCC[C@H](Oc1cccc2ccoc12)c1ccco1 [Compound IC-4, (S)-3-(benzofuran-7-yloxy)-N-methyl-3-(furan-2-yl)propyl-1-amine] | 1 to 5 µM | < 5 µM | – |
| CN1[C@H]2C[C@H](OC(=O)[C@H](CO)c3ccccc3)C[C@@H]1[C@@H](O)C2 [anisodamine, reference compound] | – | – | number of appearance of writhing reaction [1]: 27 times |
| COc1ccc2c(c1)c(CC(=O)O)c(C)n2C(=O)c1ccc(Cl)cc1 [indomethacin, reference compound] | – | – | number of appearance of writhing reaction [1]: 28 times |
| CNCC[C@H](Oc1cccc2ccoc12)c1cnco1 [Compound IC-29, (S)-3-(benzofuran-7-yloxy)-N-methyl-3-(oxazol-5-yl)propyl-1-amine] | 5 to 10 µM | – | – |
| CNCC[C@H](Oc1cccc2c1CCC2)c1cccs1 [Compound IC-10, (S)-3-(2,3-dihydro-1H-inden-4-yloxy)-N-methyl-3-(2-thienyl)propyl-1-amine] | 5 to 10 µM | – | the IC50 of compound C1/the IC50 of compound IC-10 (TRPA1; TRPA1, automated patch clamp): about 2.5 fold; analgesic activity, licking time [3]: almost completely inhibited licking claw behavior caused by pain; IC50 (human TRPA1 channel; HEK293 stably expressing human TRPA1, 100 μM AITC, +100 mV): 1.12 µM; ratio of IC50 of S configuration of duloxetine to IC50 of the compound, manual patch clamp (human TRPA1 channel; manual patch clamp): 3.9; analgesic effect (MPE %) on hot plate [2]: stronger than those of gabapentin and duloxetine |

The next lines start with results.

| IC50 (TRPA1; [4]) | IC50 (TRPA1; read-out: IC50 on TRPA1) | Structure (SMILES) | other results |
| --- | --- | --- | --- |
| 1 to 5 µM | < 5 µM | NCC[C@H](Oc1cccc2ccoc12)c1ccoc1 [Compound IC-24, (S)-3-(benzofuran-7-yloxy)-3-(furan-3-yl)propyl-1-amine] | – |
| 5 to 10 µM | – | CNCC[C@H](Oc1cccc2ccoc12)c1ccsc1 [Compound IC-2, (S)-3-(benzofuran-7-yloxy)-N-methyl-3-(thiophen-3-yl)propyl-1-amine] | – |
| 1 to 5 µM | < 5 µM | NCC[C@H](Oc1cccc2ccoc12)c1cccs1 [Compound IC-23, (S)-3-(benzofuran-7-yloxy)-3-(thiophen-2-yl) propyl-1-amine] | analgesic effect (MPE %) on hot plate [2]: very potent analgesic effect |
| 1 to 5 µM | < 5 µM | CNCC[C@H](Oc1cccc2ccoc12)c1ccoc1 [Compound IC-3, (S)-3-(benzofuran-7-yloxy)-N-methyl-3-(furan-3-yl)propyl-1-amine] | – |
| 1 to 5 µM | – | NCC[C@H](Oc1cccc2ccoc12)c1ccco1 [Compound IC-25, (S)-3-(benzofuran-7-yloxy)-3-(furan-2-yl) propyl-1-amine] | – |
| 5 to 10 µM | – | NCC[C@H](Oc1cccc2ccoc12)c1ccsc1 [Compound IC-26, (S)-3(benzofuran-7-yloxy)-3-(thiophen-3-yl) propyl-1-amine] | – |

— US20220119375A1, “3-ARYLOXY-3-ARYL-PROPYLAMINE COMPOUND AND USES THEREOF” (Zhangzhou Pien Tze Huang Pharmaceutical Co., Ltd., priority 2018, published 2022)
